Experimental data from PubChem BioAssay (NCI).
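Values below derive from 48-hour exposures of cells grown in 96-well plates, with endpoints linearly interpolated between the two concentrations bracketing the appropriate inhibition level. Definition used: TGI = concentration required for complete inhibition of growth.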

How the values were obtained:
Experiment in all cases: NCI-60 cell line screen, 48 h
A549 NSCLC = test system: A549 NSCLC
HCT-116 colon = test system: HCT-116 colon
HT29 colon = test system: HT29 colon
LOX IMVI melanoma = test system: LOX IMVI melanoma
M14 melanoma = test system: M14 melanoma
NCI-H522 lung = test system: NCI-H522 lung
OVCAR-3 ovarian = test system: OVCAR-3 ovarian
OVCAR-5 ovarian = test system: OVCAR-5 ovarian
RPMI-8226 leukemia = test system: RPMI-8226 leukemia
SF-268 CNS = test system: SF-268 CNS
TK-10 renal = test system: TK-10 renal
HS 578T breast = test system: HS 578T breast

Row | Compound | TGI (A549 NSCLC) | TGI (HCT-116 colon) | TGI (HT29 colon) | TGI (LOX IMVI melanoma) | TGI (M14 melanoma) | TGI (NCI-H522 lung) | TGI (OVCAR-3 ovarian) | TGI (OVCAR-5 ovarian) | TGI (RPMI-8226 leukemia) | TGI (SF-268 CNS) | TGI (TK-10 renal) | TGI (HS 578T breast)
1 | c1ccc2c(c1)OCCOCCOc1ccccc1OCCO2 | > 100 µM | > 100 µM | > 100 µM | > 100 µM | > 100 µM | > 100 µM | 70 µM | > 100 µM | 70.2 µM | > 100 µM | > 100 µM | –
2 | S=C1NCCN1C(=S)Nc1ccccc1 | > 100 µM | > 100 µM | > 100 µM | > 100 µM | > 100 µM | > 100 µM | > 100 µM | > 100 µM | – | > 100 µM | > 100 µM | > 100 µM
3 | CCOC(=O)CCC1(CCC(=O)OCC)CCCCCCCCC(CCC(=O)OCC)(CCC(=O)OCC)C(=O)C1=O | > 100 µM | > 100 µM | > 100 µM | > 100 µM | > 100 µM | > 100 µM | > 100 µM | > 100 µM | – | > 100 µM | > 100 µM | > 100 µM
4 | C=CC1(CC[C@]2(c3ccc(OC)c(OC)c3)C=[N+]([O-])O[C@H](O[C@@H]3CCCC[C@H]3C(C)(C)c3ccccc3)C2)OCC(C)(C)CO1 | > 54.8 µM | 41.3 µM | 28.2 µM | 35.1 µM | > 58.1 µM | 17.1 µM | 25.1 µM | 39 µM | 26.5 µM | 52.1 µM | > 67.8 µM | –
5 | O=C(NCCN1CCOCC1)c1ccc(I)cc1 | > 100 µM | – | > 100 µM | > 100 µM | > 100 µM | – | > 100 µM | > 100 µM | > 100 µM | > 100 µM | > 100 µM | > 100 µM
6 | C=C1CC[C@H]2C(=O)OC(c3ccoc3)C[C@]2(C)C/C=C\C=C/1C(=O)OC (stereo partly specified) | > 25 µM | > 25 µM | > 25 µM | > 25 µM | > 25 µM | – | > 25 µM | > 25 µM | – | – | > 25 µM | > 25 µM
7 | OC(C/C=N/N=C/CC(O)(C(F)(F)Cl)C(F)(F)Cl)(C(F)(F)Cl)C(F)(F)Cl | > 10 µM | > 10 µM | > 10 µM | > 10 µM | > 10 µM | > 10 µM | > 10 µM | – | > 10 µM | > 10 µM | > 10 µM | > 10 µM
8 | Nc1c(S(=O)(=O)c2ccccc2)c2nc3ccccc3nc2n2c1nc1ccccc12 | > 100 µM | > 100 µM | > 100 µM | > 100 µM | > 31.6 µM | > 100 µM | > 100 µM | > 100 µM | > 100 µM | > 72.9 µM | > 100 µM | –
9 | O=c1cc(CF)[nH]c(=S)[nH]1 | > 100 µM | > 100 µM | > 100 µM | > 100 µM | > 100 µM | > 100 µM | > 100 µM | > 100 µM | – | > 100 µM | > 100 µM | > 100 µM
10 | CCOC(=O)C(NC(=O)c1ccccc1)(N1CCN(c2cc3c(cc2F)c(=O)c(C(=O)O)cn3C2CC2)CC1)C(F)(F)F (stereo unspecified) | > 100 µM | 31.6 µM | – | – | 40.7 µM | – | 48.6 µM | 40.5 µM | 54.1 µM | 41.8 µM | – | 66.3 µM
11 | CC(NC(=O)c1c(O)[nH]c(=S)[nH]c1=O)c1ccc([N+](=O)[O-])cc1 (stereo unspecified) | > 100 µM | > 100 µM | > 100 µM | > 100 µM | > 100 µM | – | > 100 µM | > 100 µM | > 100 µM | > 100 µM | > 100 µM | > 100 µM
12 | CCCCCCc1cc2cc(C(=O)Nc3ccc(F)cc3)c(=N)oc2cc1O | 14.9 µM | 11.1 µM | > 100 µM | 4.93 µM | 13.2 µM | 6.13 µM | > 100 µM | > 100 µM | 4.96 µM | 5.61 µM | – | –
13 | COc1ccc(/C(Cl)=C(\C#N)c2ccc(OC)c(OC)c2)cc1OC | > 100 µM | > 100 µM | > 100 µM | > 100 µM | > 100 µM | > 100 µM | > 100 µM | > 100 µM | 60.4 µM | – | > 100 µM | –
14 | COc1ccc(N2C(=O)C(=O)N(c3ccc(N=Nc4ccccc4)cc3)C2=S)cc1 | 41.2 µM | 35.2 µM | 37.1 µM | 37.2 µM | – | 20.2 µM | – | 44.6 µM | > 100 µM | 44.4 µM | 50.4 µM | > 100 µM
15 | NC1(CCNC(=O)c2ccccc2)CCN(C(=O)c2ccccc2)CC1 | > 100 µM | > 100 µM | > 100 µM | – | > 100 µM | > 100 µM | – | > 100 µM | > 100 µM | > 100 µM | > 100 µM | > 100 µM
16 | COC(=O)N[C@H](C(=O)NC(OCc1ccccc1)C1COC(C)(C)O1)C(C)O[Si](C)(C)C(C)(C)C (stereo partly specified) | > 100 µM | > 100 µM | > 100 µM | – | > 100 µM | – | – | > 100 µM | > 100 µM | > 100 µM | > 100 µM | > 100 µM
17 | CCOC(=O)c1ccc(-c2ccc(Cl)cc2)[nH]1 | > 10 µM | > 10 µM | > 10 µM | – | > 10 µM | > 10 µM | > 10 µM | > 10 µM | – | > 10 µM | > 10 µM | > 10 µM
18 | COc1ccc(CNc2nc(NC3CCCCC3)nc(NC3CCCCC3)n2)cc1 | > 100 µM | 16 µM | > 100 µM | 4.44 µM | > 100 µM | 28.8 µM | > 100 µM | > 100 µM | – | > 100 µM | > 100 µM | > 100 µM
19 | COc1cc2nc(-c3cccs3)nc(Cl)c2cc1OC | > 100 µM | > 100 µM | > 100 µM | – | > 100 µM | > 100 µM | > 100 µM | > 100 µM | – | > 100 µM | > 100 µM | > 100 µM
20 | COc1cc(Nc2nc3cc(C(F)(F)F)ccc3nc2C(=O)O)cc(OC)c1OC | > 100 µM | > 100 µM | > 100 µM | > 100 µM | > 100 µM | > 100 µM | > 100 µM | > 100 µM | – | > 100 µM | > 100 µM | > 100 µM
